Laboratory results as given in patent US20070231406A1, “Use of gallium to treat biofilm-associated infections” (priority 2006, published 2007).
Where two headings read alike, the source gives them in different places.

Tests used:
[1] = test system: P. aeruginosa Xen 5; format: in vivo, Pseudomonas aeruginosa
Protocol: (§1) Catheter-associated UTI with Pseudomonas aeruginosa Xen5 (10^6 CFU/catheter) in CF-1 female mice was established as described by Kadurugamuwa et al. (2005) Infection and Immunity 73(7):3878-87). Gallium maltolate (GaM) was assessed for efficacy against urinary tract infection (UTI) by P. aeruginosa, alone or in combination with ciprofloxacin (cipro) using bioluminescent engineered P. aeruginosa Xen5 in a CF-1 female mice UTI model that allows real time monitoring of infection with the Xenogen IVIS® Imaging System.
(§2) Catheter-associated UTI with P. aeruginosa (10^6 colony forming units (CFU)/catheter) were established in mice and treated 2 days after infection for 4 consecutive days with GaM alone; or cipro alone; or the combination of GaM and cipro. A second cycle of treatment was started on days 9-11 and the study terminated on day 21. Controls included saline-treated uninfected and infected animals.

[2] = test system: P. aeruginosa Xen5; format: in vivo, Pseudomonas aeruginosa
Protocol: as §1, §2

[3] = Pharmacokinetics of serum gallium (ICP-MS) after oral gallium maltolate in female CF-1 mice; format: in vivo; conditions: 30 and 300 mg/kg oral gavage q.d. for 4 days
Protocol: Adult, female CF-1 mice (initial weight range 32-39 gram) were treated with 30 and 300 mg/kg gallium maltolate by oral gavage q.d. for 4 consecutive days. Both doses were administered in the same volume of drug solution, i.e., 480 μL of 2.5 and 25 mg/mL gallium maltolate in 1% carboxyl methylcellulose. Blood was drawn at the following time points after the final dose administration: 0, 0.5, 1 3, 6, 9, 12, 24, 33 and 48 hours. Blood drawn at time point ‘0’ was taken immediately after dosing. Blood samples were collected within ±5% of the scheduled time point. Whole blood (500 to 1000 μL) was drawn from a single mouse by cardiac puncture, and four mice were sacrificed per time point for each dosing group. After blood collection, the specimens were held at room temperature to allow for clot formation followed by centrifugation to obtain serum. The concentration of gallium in 100 μL serum was determined by Inductively Coupled Plasma—Mass Spectrometry (ICP-MS).
After a weighted linear regression analysis calibration curve had been established and validated by quality control analysis, serum gallium concentrations in the samples were measured and the results plotted.

[4] = test system: Pseudomonas aeruginosa Xen5; assay: Biophotonic monitoring of catheter-associated UTI with bioluminescent P. aeruginosa Xen5 in CF-1 female mice; format: in vivo
Protocol: as §1, §2
Ciprofloxacin US Pharmacopeia, Rockville, Md.) and gallium maltolate were administered by oral gavage. Ciprofloxacin was given in 0.2 mL of water and gallium maltolate in 0.2 mL water containing 1% carboxylmethyl cellulose. A second group of animals served as an untreated infection control group by being implanted with infected catheters and treated with saline. In another control group, animals were implanted with sterile catheters and served as a negative control.
Therapeutic agents were readministered for 3 consecutive days, after 4 days of cessation of the initial 4-day therapy.

[5] = 7 days after infection, gallium maltolate 300 mg/kg q.d. oral
[6] = 11 days after infection, gallium maltolate 30 mg/kg q.d. oral
[7] = 11 days after infection, gallium maltolate 100 mg/kg q.d. oral
[8] = 11 days after infection, gallium maltolate 300 mg/kg q.d. oral
[9] = 14 days after infection, gallium maltolate 300 mg/kg q.d. oral
[10] = 16 days after infection, gallium maltolate 30 mg/kg q.d. oral
[11] = 16 days after infection, gallium maltolate 100 mg/kg q.d. oral
[12] = 16 days after infection, gallium maltolate 300 mg/kg q.d. oral
[13] = 17 days after infection, gallium maltolate 30 mg/kg q.d. oral
[14] = 17 days after infection, gallium maltolate 100 mg/kg q.d. oral
[15] = 17 days after infection, gallium maltolate 300 mg/kg q.d. oral
[16] = 21 days after infection, gallium maltolate 30 mg/kg q.d. oral
[17] = 21 days after infection, gallium maltolate 100 mg/kg q.d. oral
[18] = 21 days after infection, gallium maltolate 300 mg/kg q.d. oral
[19] = gallium maltolate 30 mg/kg q.d. oral
[20] = gallium maltolate 100 mg/kg q.d. oral
[21] = gallium maltolate 300 mg/kg q.d. oral
[22] = 7 days after infection, ciprofloxacin 30 mg/kg b.i.d. oral
[23] = 11 days after infection, ciprofloxacin 30 mg/kg b.i.d. oral
[24] = 14 days after infection, ciprofloxacin 30 mg/kg b.i.d. oral
[25] = 16 days after infection, ciprofloxacin 30 mg/kg b.i.d. oral
[26] = 17 days after infection, ciprofloxacin 30 mg/kg b.i.d. oral
[27] = 21 days after infection, ciprofloxacin 30 mg/kg b.i.d. oral
[28] = ciprofloxacin 30 mg/kg b.i.d. oral

## Cc1occc(=O)c1[O-].Cc1occc(=O)c1[O-].Cc1occc(=O)c1[O-].[Ga+3] [Gallium maltolate, gallium maltolate]
[1]; [5]
  Bacterial counts in urine, Geometric Mean: 3.0 × 10^5 CFU/ml
  Range of bacterial counts in urine: 1.3 × 10^5-1.5 × 10^6 CFU/ml
[1]; [6]
  Bacterial counts in urine, Geometric Mean: 1.5 × 10^5 CFU/ml
  Range of bacterial counts in urine: 1.2 × 10^5-1.8 × 10^5 CFU/ml
[1]; [7]
  Bacterial counts in urine, Geometric Mean: 4.6 × 10^4 CFU/ml
  Range of bacterial counts in urine: 2.0 × 10^2-6.0 × 10^6 CFU/ml
[1]; [8]
  Bacterial counts in urine, Geometric Mean: 1.1 × 10^5 CFU/ml
  Range of bacterial counts in urine: 2.2 × 10^4-6.2 × 10^5 CFU/ml
[1]; [9]
  Bacterial counts in urine, Geometric Mean: 2.3 × 10^5 CFU/ml
  Range of bacterial counts in urine: 1.2 × 10^5-6.0 × 10^5 CFU/ml
[1]; [10]
  Bacterial counts in urine, Geometric Mean: 2.4 × 10^5 CFU/ml
  Range of bacterial counts in urine: 1.2 × 10^5-6.0 × 10^5 CFU/ml
[1]; [11]
  Bacterial counts in urine, Geometric Mean: 1.1 × 10^4 CFU/ml
  Range of bacterial counts in urine: 2.0 × 10^2-3.0 × 10^6 CFU/ml
[1]; [12]
  Bacterial counts in urine, Geometric Mean: 5.8 × 10^5 CFU/ml
  Range of bacterial counts in urine: 3.2 × 10^5-8 × 10^5 CFU/ml
[1]; [13]
  Bacterial counts in urine, Geometric Mean: 1.6 × 10^5 CFU/ml
  Range of bacterial counts in urine: 4.0 × 10^4-6.0 × 10^5 CFU/ml
[1]; [14]
  Bacterial counts in urine, Geometric Mean: 2.9 × 10^4 CFU/ml
  Range of bacterial counts in urine: 2.0 × 10^2-2.0 × 10^6 CFU/ml
[1]; [15]
  Bacterial counts in urine, Geometric Mean: 3.2 × 10^5 CFU/ml
  Range of bacterial counts in urine: 4.0 × 10^4-1.6 × 10^6 CFU/ml
[1]; [16]
  Bacterial counts in urine, Geometric Mean: 1.6 × 10^5 CFU/ml
  Range of bacterial counts in urine: 1.2 × 10^4-2.0 × 10^6 CFU/ml
[1]; [17]
  Bacterial counts in urine, Geometric Mean: 8.2 × 10^3 CFU/ml
  Range of bacterial counts in urine: 2.0 × 10^2-1.4 × 10^6 CFU/ml
[1]; [18]
  Bacterial counts in urine, Geometric Mean: 3.1 × 10^5 CFU/ml
  Range of bacterial counts in urine: 1.6 × 10^5-5.6 × 10^6 CFU/ml
[2]; at all doses tested, day 21
  Kidney infections at the termination of the study: free of kidney infections
[2]; [19]
  % Mortality: 25.0%
  No. of animals with a kidney signal at day 21/Total no. of animals: 0/3
[2]; [20]
  % Mortality: 25.0%
  No. of animals with a kidney signal at day 21/Total no. of animals: 0/3
[2]; [21]
  % Mortality: 0.0%
  No. of animals with a kidney signal at day 21/Total no. of animals: 0/4
[3]
  Initial half-life of elimination of serum gallium: 8 to 12 h
[3]; after final dose
  Time of peak serum gallium concentration: within half hour
[4]; Day 2, gallium maltolate 30 mg/kg q.d. oral
  Percent bacterial growth in animals compared to untreated control: 100%
[4]; Day 2, gallium maltolate 100 mg/kg q.d. oral
  Percent bacterial growth in animals compared to untreated control: 100%
[4]; Day 2, gallium maltolate 300 mg/kg q.d. oral
  Percent bacterial growth in animals compared to untreated control: 100%
[4]; Day 5, gallium maltolate 30 mg/kg q.d. oral
  Percent bacterial growth in animals compared to untreated control: 60%
[4]; Day 5, gallium maltolate 100 mg/kg q.d. oral
  Percent bacterial growth in animals compared to untreated control: 33%
[4]; Day 5, gallium maltolate 300 mg/kg q.d. oral
  Percent bacterial growth in animals compared to untreated control: 19%
[4]; Day 8, gallium maltolate 30 mg/kg q.d. oral
  Percent bacterial growth in animals compared to untreated control: 10%
[4]; Day 8, gallium maltolate 100 mg/kg q.d. oral
  Percent bacterial growth in animals compared to untreated control: 12%
[4]; Day 8, gallium maltolate 300 mg/kg q.d. oral
  Percent bacterial growth in animals compared to untreated control: 7%
[4]; Day 10, gallium maltolate 30 mg/kg q.d. oral
  Percent bacterial growth in animals compared to untreated control: 13%
[4]; Day 10, gallium maltolate 100 mg/kg q.d. oral
  Percent bacterial growth in animals compared to untreated control: 2%
[4]; Day 10, gallium maltolate 300 mg/kg q.d. oral
  Percent bacterial growth in animals compared to untreated control: 4%
[4]; Day 15, gallium maltolate 30 mg/kg q.d. oral
  Percent bacterial growth in animals compared to untreated control: 54%
[4]; Day 15, gallium maltolate 100 mg/kg q.d. oral
  Percent bacterial growth in animals compared to untreated control: 11%
[4]; Day 15, gallium maltolate 300 mg/kg q.d. oral
  Percent bacterial growth in animals compared to untreated control: 20%
[4]; Day 21, gallium maltolate 30 mg/kg q.d. oral
  Percent bacterial growth in animals compared to untreated control: 22%
[4]; Day 21, gallium maltolate 100 mg/kg q.d. oral
  Percent bacterial growth in animals compared to untreated control: 1%
[4]; Day 21, gallium maltolate 300 mg/kg q.d. oral
  Percent bacterial growth in animals compared to untreated control: 8%
[4]; gallium maltolate 300 mg/kg
  Recurrence of infection after termination of administration: recurrence of high levels of infection did not occur
[4]; gallium maltolate 300 mg/kg, remained until termination on day 21
  Bioluminescence signal level: approximately 10^5 photons/catheter
[4]; gallium maltolate 30 and 100 mg/kg
  Antibacterial growth activity compared to untreated control: showed antibacterial growth activity

## O=C(O)c1cn(C2CC2)c2cc(N3CCNCC3)c(F)cc2c1=O [Ciprofloxacin, reference compound]
[1]; [22]
  Bacterial counts in urine, Geometric Mean: 3.3 × 10^3 CFU/ml
  Range of bacterial counts in urine: 2.0 × 10^2-7.0 × 10^5 CFU/ml
[1]; [23]
  Bacterial counts in urine, Geometric Mean: 2.0 × 10^2 CFU/ml
  Range of bacterial counts in urine: 2.0 × 10^2 CFU/ml
[1]; [24]
  Bacterial counts in urine, Geometric Mean: 1.1 × 10^5 CFU/ml
  Range of bacterial counts in urine: 2.0 × 10^2-1.2 × 10^7 CFU/ml
[1]; [25]
  Bacterial counts in urine, Geometric Mean: 3.2 × 10^4 CFU/ml
  Range of bacterial counts in urine: 2.0 × 10^2-6.0 × 10^5 CFU/ml
[1]; [26]
  Bacterial counts in urine, Geometric Mean: 1.2 × 10^5 CFU/ml
  Range of bacterial counts in urine: 2.0 × 10^2-8.0 × 10^6 CFU/ml
[1]; [27]
  Bacterial counts in urine, Geometric Mean: 2.2 × 10^5 CFU/ml
  Range of bacterial counts in urine: 2.0 × 10^2-3.6 × 10^7 CFU/ml
[2]; [28]
  % Mortality: 12.5%
  No. of animals with a kidney signal at day 21/Total no. of animals: 1/7
[4]; Day 2, ciprofloxacin 30 mg/kg b.i.d. oral
  Percent bacterial growth in animals compared to untreated control: 100%
[4]; Day 5, ciprofloxacin 30 mg/kg b.i.d. oral
  Percent bacterial growth in animals compared to untreated control: 3%
[4]; Day 8, ciprofloxacin 30 mg/kg b.i.d. oral
  Percent bacterial growth in animals compared to untreated control: 9%
[4]; Day 10, ciprofloxacin 30 mg/kg b.i.d. oral
  Percent bacterial growth in animals compared to untreated control: 2%
[4]; Day 15, ciprofloxacin 30 mg/kg b.i.d. oral
  Percent bacterial growth in animals compared to untreated control: 138%
[4]; Day 21, ciprofloxacin 30 mg/kg b.i.d. oral
  Percent bacterial growth in animals compared to untreated control: 272%
[4]; approximately two days after discontinuing the initial 4-day therapy
  Bioluminescent signal after discontinuing first ciprofloxacin treatment: reestablishment of the infection upon cessation of antibiotic therapy
[4]; ciprofloxacin 30 mg/kg b.i.d., after four days of treatments
  Bioluminescent signal in the bladder compared to untreated control: rapid decline in bioluminescent signal to almost nearly to undetectable levels
[4]; re-administration for three consecutive days
  Bioluminescence signal on re-administration of antibiotic: repeat decline in the bioluminescence signal
[4]; soon after discontinuation of second treatment cycle
  Infection after discontinuation of second bout of ciprofloxacin treatment: infection re-established once again and approximately reached untreated levels
